Experimental data reported in US20230072683A1, “PYRIDO-PYRIMIDIN DERIVATIVES AND PHARMACEUTICAL COMPOSITION, FOR USE IN PREVENTING OR TREATING PI3 KINASE RELATED DISEASES, COMPRISING SAME AS ACTIVE INGREDIENT” (BORYUNG PHARMACEUTICAL CO., LTD, priority 2019, published 2023).
Like-named read-outs stand apart in the source and are kept apart here.

Tests used:
[1] = molecular target: PI3K-δ (PI3K(p1108/p857) (h)) (Homo sapiens, UniProt O00329); assay: Evaluation of inhibitory activity against PI3K-δ (HTRF kinase assay); assay type: biochemical; conditions: for inhibition at 0.01 µM: compound concentration 0.01 μM, read-out: EXP_VALUE(% Inhibition) PI3K-δ 0.01 μM; for inhibition at 0.1 µM: read-out: EXP_VALUE(% Inhibition) PI3K-δ 0.1 μM
Method in brief: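 HTRF read-out (665/620 nm ratio ×10000) used Eu-labelled anti-GST, GST-tagged GRP1 PH domain and streptavidin-allophycocyanin after EDTA/PIP3 stop.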

DNA-PK(h) = DNA-PK(h) (Homo sapiens, UniProt P78527); assay: Evaluation of inhibitory activity against DNA-PK (HTRF kinase assay, GST-cMyc-p53 substrate); assay type: biochemical; conditions: for inhibition at 0.01 µM: compound concentration 0.01 μM, read-out: EXP_VALUE(% Inhibition) DNA-PK(h) 0.01 μM; for inhibition at 0.1 µM: read-out: EXP_VALUE(% Inhibition) DNA-PK(h) 0.1 μM
Method in brief: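 p53 Ser15 phosphorylation by human DNA-PK was measured by time-resolved FRET ratio (665/620 nm ×10000) using Eu-labelled anti-phospho-Ser15 and d2 anti-GST antibodies. Substrate GST-cMyc-p53 at 50 μM; Mg/ATP-initiated, 30 min at room temperature, EDTA stop.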

Chain of PI3K-δ (PI3K(p1108/p857) (h)) (O00329 whole entry, the tested form may be a part): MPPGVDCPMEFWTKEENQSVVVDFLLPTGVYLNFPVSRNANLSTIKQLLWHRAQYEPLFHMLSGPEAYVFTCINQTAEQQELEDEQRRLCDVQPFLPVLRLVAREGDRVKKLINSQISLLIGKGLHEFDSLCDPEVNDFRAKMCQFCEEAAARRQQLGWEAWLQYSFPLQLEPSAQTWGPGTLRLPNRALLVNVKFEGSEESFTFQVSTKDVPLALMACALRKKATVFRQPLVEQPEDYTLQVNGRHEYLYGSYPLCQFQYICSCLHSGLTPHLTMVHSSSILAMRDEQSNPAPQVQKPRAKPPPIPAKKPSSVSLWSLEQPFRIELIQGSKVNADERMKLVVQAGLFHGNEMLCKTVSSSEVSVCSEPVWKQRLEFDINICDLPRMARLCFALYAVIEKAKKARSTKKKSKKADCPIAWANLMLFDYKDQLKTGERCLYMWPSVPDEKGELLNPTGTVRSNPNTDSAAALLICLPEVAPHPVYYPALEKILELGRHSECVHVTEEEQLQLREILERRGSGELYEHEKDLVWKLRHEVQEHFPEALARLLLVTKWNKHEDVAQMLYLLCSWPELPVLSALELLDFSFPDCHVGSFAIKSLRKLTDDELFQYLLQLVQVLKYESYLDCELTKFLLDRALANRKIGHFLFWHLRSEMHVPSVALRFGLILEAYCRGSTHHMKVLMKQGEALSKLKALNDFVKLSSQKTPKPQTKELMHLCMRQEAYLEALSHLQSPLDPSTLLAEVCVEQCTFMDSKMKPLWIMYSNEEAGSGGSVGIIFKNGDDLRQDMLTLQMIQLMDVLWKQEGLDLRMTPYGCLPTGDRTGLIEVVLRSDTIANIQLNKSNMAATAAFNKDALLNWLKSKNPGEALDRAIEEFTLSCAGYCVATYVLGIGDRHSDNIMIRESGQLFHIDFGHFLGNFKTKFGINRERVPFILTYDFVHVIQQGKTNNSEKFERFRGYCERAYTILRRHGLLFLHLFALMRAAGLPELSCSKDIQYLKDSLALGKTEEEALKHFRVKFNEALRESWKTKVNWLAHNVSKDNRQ
Chain of PI3K-δ (PI3K(p1108/p857) (h)) (P27986 whole entry partner, the tested form may be a part): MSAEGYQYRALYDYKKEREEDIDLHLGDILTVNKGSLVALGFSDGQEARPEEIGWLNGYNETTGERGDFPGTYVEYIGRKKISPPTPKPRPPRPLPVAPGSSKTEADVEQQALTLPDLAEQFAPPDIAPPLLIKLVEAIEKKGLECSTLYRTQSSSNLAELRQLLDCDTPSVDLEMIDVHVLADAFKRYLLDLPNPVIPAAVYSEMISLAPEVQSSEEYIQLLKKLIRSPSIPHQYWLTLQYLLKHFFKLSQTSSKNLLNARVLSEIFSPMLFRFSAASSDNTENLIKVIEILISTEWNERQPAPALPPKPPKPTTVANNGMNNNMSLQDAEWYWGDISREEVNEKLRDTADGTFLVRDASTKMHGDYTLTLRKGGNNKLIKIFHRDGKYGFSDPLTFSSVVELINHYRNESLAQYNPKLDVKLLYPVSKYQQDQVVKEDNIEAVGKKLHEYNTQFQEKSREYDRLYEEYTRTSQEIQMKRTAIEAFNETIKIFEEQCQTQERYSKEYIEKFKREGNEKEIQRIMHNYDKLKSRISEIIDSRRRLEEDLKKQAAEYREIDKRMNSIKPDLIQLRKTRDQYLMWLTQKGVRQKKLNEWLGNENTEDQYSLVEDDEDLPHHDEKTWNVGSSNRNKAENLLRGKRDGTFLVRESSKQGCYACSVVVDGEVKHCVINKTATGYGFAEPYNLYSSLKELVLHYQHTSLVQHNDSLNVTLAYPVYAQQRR

Row | SMILES | inhibition at 0.01 µM [1] [%] | inhibition at 0.1 µM ([1]; compound concentration 0.1 μM) [%] | inhibition at 0.01 µM (DNA-PK(h)) [%] | inhibition at 0.1 µM (DNA-PK(h); compound concentration 0.1 μM) [%] | inhibition at 0.1 µM ([1]; compound at 0.1 μM) [%] | inhibition at 0.1 µM (DNA-PK(h); compound at 0.1 μM) [%]
1 | C[C@H](Nc1ncnc2[nH]ccc(=O)c12)c1c(Cl)c2cccc(N(C)C3CCCCC3)c2c(=O)n1-c1ccccc1 [Example 322, (S)-4-((1-(4-chloro-8-(cyclohexyl(methyl)amino)-1-oxo-2-phenyl-1,2-dihydroisoquinolin-3-yl)ethyl)amino)pyrido[2,3-d]pyrimidin-5(8H)-one] | 11 | 30 | -11 | 21 | – | –
2 | C[C@H](Nc1ncnc2[nH]ccc(=O)c12)c1c(Cl)c2cccc(-c3ccccc3F)c2c(=O)n1-c1ccccc1 [Example 122, (S)-4-((1-(4-chloro-8-(2-fluorophenyl)-1-oxo-2-phenyl-1,2-dihydroisoquinolin-3-yl)ethyl)amino)pyrido[2,3-d]pyrimidin-5(8H)-one] | 68 | 88 | 61 | 92 | – | –
3 | C[C@H](Nc1ncnc2[nH]ccc(=O)c12)c1c(Cl)c2cccc(-c3cnn(C)c3)c2c(=O)n1-c1ccccc1 [Example 5, (S)-4-((1-(4-chloro-8-(1-methyl-1H-pyrazol-4-yl)-1-oxo-2-phenyl-1,2-dihydroisoquinolin-3-yl)ethyl)amino)pyrido[2,3-d]pyrimidin-5(8H)-one] | 106 | 115 | 69 | 100 | – | –
4 | C[C@H](Nc1ncnc2[nH]ccc(=O)c12)c1c(Cl)c2cccc(C(=O)NCC3CC3)c2c(=O)n1-c1ccccc1 [Example 283, (S)-4-chloro-N-(cyclopropylmethyl)-1-oxo-3-(1-((5-oxo-5,8-dihydropyrido[2,3-d]pyrimidin-4-yl)amino)ethyl)-2-phenyl-1,2-dihydroisoquinoline-8-carboxamide] | 81 | – | 12 | – | – | –
5 | CCCOC(C)(C)c1ncc(-c2cccc3c(Cl)c([C@H](C)Nc4ncnc5[nH]ccc(=O)c45)n(-c4ccccc4)c(=O)c23)cn1 [Example 406, (S)-4-((1-(4-chloro-1-oxo-2-phenyl-8-(2-(2-propoxypropan-2-yl)pyrimidin-5-yl)-1,2-dihydroisoquinolin-3-yl)ethyl)amino)pyrido[2,3-d]pyrimidin-5(8H)-one] | – | – | – | – | 72 | 71
6 | C[C@H](Nc1ncnc2[nH]ccc(=O)c12)c1c(Cl)c2cccc(-c3ccc(C(F)(F)F)cc3Cl)c2c(=O)n1-c1ccccc1 [Example 256, (S)-4-((1-(4-chloro-8-(2-chloro-4-(trifluoromethyl)phenyl)-1-oxo-2-phenyl-1,2-dihydroisoquinolin-3-yl)ethyl)amino)pyrido[2,3-d]pyrimidin-5(8H)-one] | 75 | 100 | 44 | 77 | – | –
7 | C[C@H](Nc1ncnc2[nH]ccc(=O)c12)c1c(Cl)c2cccc(-c3cnc4c(c3)OCCO4)c2c(=O)n1-c1ccccc1 [Example 132, (S)-4-((1-(4-chloro-8-(2,3-dihydro-[1,4]dioxino[2,3-b]pyridin-7-yl)-1-oxo-2-phenyl-1,2-dihydroisoquinolin-3-yl)ethyl)amino)pyrido[2,3-d]pyrimidin-5(8H)-one] | 91 | 94 | 89 | 102 | – | –
8 | C[C@H](Nc1ncnc2[nH]ccc(=O)c12)c1c(Cl)c2cccc(-c3ccc(Cl)cc3)c2c(=O)n1-c1ccccc1 [Example 84, (S)-4-((1-(4-chloro-8-(4-chlorophenyl)-1-oxo-2-phenyl-1,2-dihydroisoquinolin-3-yl)ethyl)amino)pyrido[2,3-d]pyrimidin-5(8H)-one] | 49 | 91 | 16 | 65 | – | –
9 | C[C@H](Nc1ncnc2[nH]ccc(=O)c12)c1c(Cl)c2cccc([S+]([O-])c3ncccn3)c2c(=O)n1-c1ccccc1 (stereo partly drawn) [Example 419, 4-(((1S)-1-(4-chloro-1-oxo-2-phenyl-8-(pyrimidin-2-ylsulfinyl)-1,2-dihydroisoquinolin-3-yl)ethyl)amino)pyrido[2,3-d]pyrimidin-5(8H)-one] | – | – | – | – | 7 | 47
10 | CC(C)C1CCN(c2cccc3c(Cl)c([C@H](C)Nc4ncnc5[nH]ccc(=O)c45)n(-c4ccccc4)c(=O)c23)CC1 [Example 76, (S)-4-((1-(4-chloro-8-(4-isopropylpiperidin-1-yl)-1-oxo-2-phenyl-1,2-dihydroisoquinolin-3-yl)ethyl)amino)pyrido[2,3-d]pyrimidin-5(8H)-one] | 14 | 43 | 1 | 20 | – | –
11 | C[C@H](Nc1ncnc2[nH]ccc(=O)c12)c1cc2cccc(-c3ccc(F)cc3)c2c(=O)n1-c1ccccc1 [Example 14, (S)-4-((1-(8-(4-fluorophenyl)-1-oxo-2-phenyl-1,2-dihydroisoquinolin-3-yl)ethyl)amino)pyrido[2,3-d]pyrimidin-5(8H)-one] | 105 | 107 | 8 | 27 | – | –
12 | C[C@H](Nc1ncnc2[nH]ccc(=O)c12)c1c(Cl)c2cccc(-c3ccc(C4CCN(C)CC4)cc3)c2c(=O)n1-c1ccccc1 [Example 130, (S)-4-((1-(4-chloro-8-(4-(1-methylpiperidin-4-yl)phenyl)-1-oxo-2-phenyl-1,2-dihydroisoquinolin-3-yl)ethyl)amino)pyrido[2,3-d]pyrimidin-5(8H)-one] | 85 | 89 | 98 | 102 | – | –
13 | C[C@H](Nc1ncnc2[nH]ccc(=O)c12)c1c(Cl)c2cccc(C(=O)N3CCOCC3)c2c(=O)n1-c1ccccc1 [Example 286, (S)-4-((1-(4-chloro-8-(morpholine-4-carbonyl)-1-oxo-2-phenyl-1,2-dihydroisoquinolin-3-yl)ethyl)amino)pyrido[2,3-d]pyrimidin-5(8H)-one] | 52 | – | 23 | – | – | –
14 | C[C@H](Nc1ncnc2[nH]ccc(=O)c12)c1c(Cl)c2cccc(C#Cc3ccccn3)c2c(=O)n1-c1ccccc1 [Example 308, (S)-4-((1-(4-chloro-1-oxo-2-phenyl-8-(pyridin-2-ylethynyl)-1,2-dihydroisoquinolin-3-yl)ethyl)amino)pyrido[2,3-d]pyrimidin-5(8H)-one] | 28.4 | 60.3 | 21.5 | 70.3 | – | –

More lines, now with the values ahead:

Row | inhibition at 0.01 µM [1] [%] | inhibition at 0.1 µM ([1]; compound concentration 0.1 μM) [%] | inhibition at 0.01 µM (DNA-PK(h)) [%] | inhibition at 0.1 µM (DNA-PK(h); compound concentration 0.1 μM) [%] | inhibition at 0.1 µM ([1]; compound at 0.1 μM) [%] | inhibition at 0.1 µM (DNA-PK(h); compound at 0.1 μM) [%] | SMILES
15 | 13 | – | -7 | – | – | – | C[C@H](Nc1ncnc2[nH]ccc(=O)c12)c1c(Cl)c2cccc(Nc3ccc(F)cc3)c2c(=O)n1-c1ccccc1 [Example 344, (S)-4-((1-(4-chloro-8-((4-fluorophenyl)amino)-1-oxo-2-phenyl-1,2-dihydroisoquinolin-3-yl)ethyl)amino)pyrido[2,3-d]pyrimidin-5(8H)-one]
16 | 57 | – | 52 | – | – | – | COc1cc(OC(C)C)cc(-c2cccc3c(Cl)c([C@H](C)Nc4ncnc5[nH]ccc(=O)c45)n(-c4ccccc4)c(=O)c23)c1 [Example 157, (S)-4-((1-(4-chloro-8-(3-isopropoxy-5-methoxyphenyl)-1-oxo-2-phenyl-1,2-dihydroisoquinolin-3-yl)ethyl)amino)pyrido[2,3-d]pyrimidin-5(8H)-one]
17 | 40 | – | 86 | – | – | – | C[C@H](Nc1ncnc2[nH]ccc(=O)c12)c1c(Cl)c2cccc(-c3cccc(N4CCOCC4)c3)c2c(=O)n1-c1ccccc1 [Example 173, (S)-4-((1-(4-chloro-8-(3-morpholinophenyl)-1-oxo-2-phenyl-1,2-dihydroisoquinolin-3-yl)ethyl)amino)pyrido[2,3-d]pyrimidin-5(8H)-one]
18 | – | – | – | – | 0 | 23 | CC(C)Sc1cccc2c(Cl)c([C@H](C)Nc3ncnc4[nH]ccc(=O)c34)n(-c3ccccc3)c(=O)c12 [Example 415, (S)-4-((1-(4-chloro-8-(isopropylthio)-1-oxo-2-phenyl-1,2-dihydroisoquinolin-3-yl)ethyl)amino)pyrido[2,3-d]pyrimidin-5(8H)-one]
19 | 31 | 95 | 13 | 52 | – | – | C[C@H](Nc1ncnc2[nH]ccc(=O)c12)c1c(Cl)c2cccc(NCCc3ccc(Cl)cc3)c2c(=O)n1-c1ccccc1 [Example 335, (S)-4-((1-(4-chloro-8-((4-chlorophenethyl)amino)-1-oxo-2-phenyl-1,2-dihydroisoquinolin-3-yl)ethyl)amino)pyrido[2,3-d]pyrimidin-5(8H)-one]
20 | 22 | – | 15 | – | – | – | C[C@H](Nc1ncnc2[nH]ccc(=O)c12)c1c(Cl)c2cccc(C(=O)NC(C)(C)C)c2c(=O)n1-c1ccccc1 [Example 285, (S)—N-(tert-butyl)-4-chloro-1-oxo-3-(1-((5-oxo-5,8-dihydropyrido[2,3-d]pyrimidin-4-yl)amino)ethyl)-2-phenyl-1,2-dihydroisoquinoline-8-carboxamide]
21 | 89 | – | 67 | – | – | – | COc1ncc(-c2cccc3c(Cl)c([C@H](C)Nc4ncnc5[nH]ccc(=O)c45)n(-c4ccccc4)c(=O)c23)cc1[N+](=O)[O-] [Example 61, (S)-4-((1-(4-chloro-8-(6-methoxy-5-nitropyridin-3-yl)-1-oxo-2-phenyl-1,2-dihydroisoquinolin-3-yl)ethyl)amino)pyrido[2,3-d]pyrimidin-5(8H)-one]
